{"source": "patent US4721713A", "about": "“Process for inhibiting blood platelet aggregation and promoting vasodilation” (Toyo Jozo Kabushiki Kaisha, priority 1986, dated 1988)", "key": {"[1]": {"system": "platelet aggregation in platelet-rich rabbit plasma", "assay": "Inhibitory effect on blood platelet aggregation, effect in vitro (ADP-induced)", "assay_type": "cell-based", "details": "for inhibition at 100 µM: Oryctolagus cuniculus, Platelet, 0.05 h, read-out: Inhibition Ratio on Platelet Aggregation (Mean ± S.E)", "description": "An aggregating agent, adenosine-5'-diphosphate (final concentration 2.5 μM), was added thereto and the platelet aggregating potential was measured with an aggregometer."}, "[2]": {"system": "blood flow in left hind leg", "assay": "Vasodilating activity upon intra-arterial administration (perfused left hind leg)", "assay_type": "in vivo, Mongrel dogs", "details": "for Vasodilating Activity (relative to blood flow increase by papaverine 30 μg as 100%): 100 μg, i.a., mean ± S.E. for 3 animals", "description": "Mongrel dogs anesthetized with urethane (450 mg/kg iv) and α-chlora-lose (45 mg/kg iv) after pretreatment with morphine (1.5 mg/kg, sc) were secured in a supine position. Blood from the right femoral artery was introduced into the left femoral artery through a circulation pump and the left hind leg was perfused under constant pressure by connection with a Starling's resistance in an exosomatic circulatory system. The prefusion pressure was set slightly higher than the mean blood pressure of each animal and the change in blood flow upon intra-arterial injection of the test compound was determined. The results, showing specific activity as compared with a value indicating the degree of increase in the amount of blood flow by papaverine (30 μg, iv) as 100%, are shown in Table 4."}, "[3]": {"system": "number of platelets in the circulating blood", "assay": "Effect in vivo: number of platelets in circulating blood after E. coli lipopolysaccharide", "design": "species or system Male Wistar rats", "details": "for Number of Platelets, Exp. 1 / Number of Platelets, Exp. 2: ratio pre- and post-administration, LPS 5 mg/kg i.p., 3 hours", "description": "Male Wistar rats, five animals in a group, were administered per orally the agents to be tested. After one hour, E. coli lipopolysaccharide (5 mg/kg) was injected intraperitoneally and 3 hours thereafter blood samples were collected and measured as to the number of platelets in the circulating blood to determine the ratio of platelets pre- and post-administration of the agents. The tests were repeated twice."}, "[4]": {"system": "experimental disseminated intravascular coagulation", "assay": "Effect on disseminated intravascular coagulation (E. coli lipopolysaccharide infusion)", "assay_type": "in vivo, Male Wistar rats", "details": "100 mg/kg p.o.", "description": "Male Wistar rats, seven animals in a group, were administered per orally the agents (100 mg/kg) to be tested. After one hour, E. coli lipopolysaccharide (50 mg/kg) was continuously injected intravenously for four hours. A control group was given physiological saline intravenously under the same conditions.\nBlood was collected immediately after finishing the injection to measure the number of platelets, the activated partial thromboplastin time, the prothrombin time and the amount of fibrinogen. In the control group, in which E. coli lipopolysaccharide was injected, a marked decrease in the number of platelets and the amount of fibrinogen and a marked prolongation of the activated partial thromboplastin time and the prothrombin time are observed."}, "[5]": {"assay": "Acute toxicity in mice", "assay_type": "in vivo", "details": "mouse, in vivo"}, "[6]": {"system": "mice", "assay": "Acute toxicity in mice", "assay_type": "in vivo", "details": "intravenous 100 mg/kg"}, "[7]": {"system": "anoxia", "assay": "Protective effect against anoxia", "assay_type": "in vivo, Male ddY strain mice", "details": "for Survival Time: 200 mg/kg p.o., mean ± S.E.", "description": "The present compound and a control were administered per orally 30 or 60 mins. before the test."}, "[8]": {"system": "arterial blood flow (vertebral, coronary, renal, femoral)", "assay": "Vasodilating activity upon intravenous administration (regional arterial blood flow)", "assay_type": "in vivo, mongrel dog", "details": "FIG. 1", "excerpt": "A cuff-type probe for measuring blood flow was applied to the left vertebral artery, the left anterior descending coronary artery, the left renal artery and the right femoral artery of a mongrel dog anesthetized in the same way as hereinabove and the blood flow was continuously measured. The blood pressure was monitored by a pressure transducer connected to a cannula inserted into the left femoral artery, and the heart rate was monitored through a tachometer by triggering the R-wave of lead II of an electrocardiograph. The agent to be tested was injected into the left venous cephalica. The results are shown in FIG. 1, in which the ordinate indicates the response ratio and the abscissa indicates dosages by intravenous administration, and in which"}, "[9]": {"system": "PAF-induced shock", "assay": "Effect against platelet activated factor (PAF)-induced shock", "assay_type": "in vivo, Male ddY strain mice", "details": "100 mg/kg p.o.", "description": "Male ddY strain mice, male, 10 animals in a group, were administered per orally the compound of the present invention (100 mg/kg), and after one hour PAF (60 μg/kg) was administered intravenously to determine the ratio of mortality."}, "[10]": {"system": "microorganism strains TA100, TA1535, WP2 uvr A, TA98, TA1537 and TA1538", "assay": "Mutagenicity, backward mutation test", "assay_type": "cell-based", "description": "A backward mutation test using microorganism strains TA100, TA1535, WP2 uvr A, TA98, TA1537 and TA1538 was performed by the method according to Iyer et al. [N. Y. Iyer and W. Szybalski, Appl. Microbiol., 6: 37 (1958)]. The test agents were tenfold diluted in six stages of concentration of 0.00333-333 μg/disc."}, "[11]": {"assay": "Acute toxicity in rats", "assay_type": "in vivo, male Wister rats", "details": "rat, in vivo; oral, rats"}, "[12]": {"system": "rats", "assay": "Acute toxicity in rats", "assay_type": "in vivo, male Wister rats"}, "[13]": {"system": "L5178Y murine lymphoblastoma", "assay": "Cytotoxicity", "assay_type": "cell-based", "details": "37° C. for 18 hours", "description": "To L5178Y murine lymphoblastoma (2×10^4 cells/ml) suspended in a medium (27 ml) comprising Fischer's culture medium including 10% bovine serum, were added test agents in solution (0.3 ml) diluted with a culture medium and the material was incubated at 37° C. for 18 hours. Growth of the cells was determined by color change. Growth inhibition of the cells was not observed at any concentration of 20 μg/ml and 100 μg/ml of the compound of the present invention, and so no cytotoxicity was observed."}, "[14]": {"details": "final concentration 100 μM, ADP 2.5 μM, 37° C. for 3 minutes"}, "[15]": {"details": "final concentration 100 μM, ADP 2.5 μM"}, "[16]": {"details": "LPS 50 mg/kg i.v. over four hours"}, "[17]": {"details": "PAF 60 μg/kg i.v. after one hour"}}, "note": "Where two headings read alike, the source gives them in different places.", "data": [{"compound": "Cc1nc(C)c(C)nc1C", "note": "[Tetramethylpyrazine, tetramethylpyrazine]", "values": [{"measurement": "inhibition at 100 µM", "setting": "[1]; [14]", "value": "3 ± 1.6", "unit": "%"}, {"measurement": "Inhibitory effect on blood platelet aggregation (in words)", "setting": "[1]; [15]", "value": "no inhibitory effect"}, {"measurement": "Vasodilating Activity (relative to blood flow increase by papaverine 30 μg as 100%)", "setting": "[2]", "value": "19.3 ± 0.9", "unit": "%"}]}, {"compound": "CC(=O)Oc1ccccc1C(=O)O", "note": "[Acetyl salicylic acid, acetyl salicylic acid]", "values": [{"measurement": "inhibition at 100 µM", "setting": "[1]", "value": "-0.6 ± 0.6", "unit": "%"}, {"measurement": "Inhibitory effect on blood platelet aggregation (in words)", "setting": "[1]; [15]", "value": "no inhibitory effect"}]}, {"compound": "Clc1ccccc1CN1CCc2sccc2C1", "note": "[Ticlopidine, ticlopidine, reference compound]", "values": [{"measurement": "inhibition at 100 µM", "setting": "[1]; [14]", "value": "-1.2 ± 1.2", "unit": "%"}, {"measurement": "Inhibitory effect on blood platelet aggregation (in words)", "setting": "[1]; [15]", "value": "no inhibitory effect"}, {"measurement": "Number of Platelets, Exp. 1", "setting": "[3]; 200 mg/kg p.o.", "value": "57.9 ± 12.0", "unit": "%"}, {"measurement": "Number of Platelets, Exp. 2", "setting": "[3]; 200 mg/kg p.o.", "value": "63.4 ± 19.4", "unit": "%"}]}, {"compound": "Cc1nc(O)c(C(C)C)nc1C.Cl", "note": "[Present compound, 2-hydroxy-3-isopropyl-5,6-dimethylpyrazine hydrochloride]", "values": [{"measurement": "inhibition at 100 µM", "setting": "[1]; [14]", "value": "69.6 ± 5.4", "unit": "%"}, {"measurement": "Inhibitory effect on blood platelet aggregation (in words)", "setting": "[1]; [15]", "value": "distinct inhibitory effect"}, {"measurement": "Activated Partial Thromboplastin Time", "setting": "[4]; [16]", "value": "48.5 ± 7.4", "unit": "s"}, {"measurement": "Fibrinogen", "setting": "[4]; [16]", "value": "77.2 ± 13.1", "unit": "mg/dL"}, {"measurement": "Platelet Number", "setting": "[4]; [16]", "value": "177 ± 51 × 10^3 /mm^3"}, {"measurement": "Prothrombin Time", "setting": "[4]; [16]", "value": "14.3 ± 1.4", "unit": "s"}, {"measurement": "Effect against all the factors tested (in words)", "setting": "[4]; experimental disseminated intravascular coagulation", "value": "significant effect against all the factors tested"}, {"measurement": "LD50", "setting": "[5]; intravenous, read-out: LD50", "value": "~200", "unit": "mg/kg"}, {"measurement": "LD50", "setting": "[5]; oral, read-out: LD50 oral", "value": 555, "unit": "mg/kg"}, {"measurement": "Death", "setting": "[6]", "value": "no death was observed"}, {"measurement": "Survival Time", "setting": "[7]; pretreatment time 30 min.", "value": "42.7 ± 1.6", "unit": "s"}, {"measurement": "Survival Time", "setting": "[7]; pretreatment time 60 min.", "value": "48.1 ± 1.9", "unit": "s"}, {"measurement": "Survival time (in words)", "setting": "[7]; pretreatment per orally", "value": "Significant prolongation of survival time"}, {"measurement": "Coronary arterial blood flow (in words)", "setting": "[8]", "value": "increases blood flow in the vertebral artery, in the coronary artery"}, {"measurement": "Femoral arterial blood flow (in words)", "setting": "[8]", "value": "increases blood flow in the vertebral artery, in the coronary artery and in the femoral artery"}, {"measurement": "Renal arterial blood flow (in words)", "setting": "[8]", "value": "does not affect the renal arterial blood flow"}, {"measurement": "Selectivity for vertebral and coronary arterial blood flow (in words)", "setting": "[8]", "value": "Selective effects on the vertebral arterial blood flow and the coronary arterial blood flow"}, {"measurement": "Vertebral arterial blood flow (in words)", "setting": "[8]", "value": "increases blood flow in the vertebral artery"}, {"measurement": "Action against PAF-induced shock (in words)", "setting": "[9]", "value": "protective action"}, {"measurement": "Mortality, Experiment 1", "setting": "[9]; [17]", "value": "1/10"}, {"measurement": "Mortality, Experiment 2", "setting": "[9]; [17]", "value": "3/10"}, {"measurement": "Number of Platelets, Exp. 1", "setting": "[3]; 100 mg/kg p.o.", "value": "58.2 ± 7.8", "unit": "%"}, {"measurement": "Number of Platelets, Exp. 2", "setting": "[3]; 100 mg/kg p.o.", "value": "55.9 ± 14.0", "unit": "%"}, {"measurement": "Effect on decrease of platelet number (in words)", "setting": "[3]; 100 mg/kg per orally, compared with ticlopidine 200 mg/kg oral", "value": "inhibits the decrease of platelet number, which is comparable to an oral dose of 200 mg/kg ticlopidine"}, {"measurement": "Mutagenesis", "setting": "[10]; 0.00333-333 μg/disc, any concentration", "value": "No mutagenesis was found"}, {"measurement": "Mutagenesis under metabolic activation", "setting": "[10]; metabolic activation using an S-9 mixture", "value": "no mutagenesis was observed"}, {"measurement": "Vasodilating Activity (relative to blood flow increase by papaverine 30 μg as 100%)", "setting": "[2]", "value": "100.7 ± 19.1", "unit": "%"}, {"measurement": "Vasodilating activity compared with tetramethylpyrazine (in words)", "setting": "[2]; intra-arterial", "value": "markedly stronger vasodilating activity than that of the control drug, tetramethylpyrazine"}, {"measurement": "LD50", "setting": "[11]", "value": 903, "unit": "mg/kg"}, {"measurement": "Death", "setting": "[12]; intravenous 50 mg/kg, rats", "value": "no death was observed"}, {"measurement": "Dose attainable due to the solubility of the compound", "setting": "[12]; rat, in vivo, iv", "value": "up to 50 mg/kg"}, {"measurement": "Growth inhibition of the cells", "setting": "[13]; 20 μg/ml", "value": "not observed"}, {"measurement": "Growth inhibition of the cells", "setting": "[13]; 100 μg/ml", "value": "not observed"}]}]}
